Results: ChEMBL document CHEMBL1909046, “DrugMatrix in vitro pharmacology data”

Columns and labels:
[1] = DRUGMATRIX: Imidazoline I2, Central radioligand binding (ligand: [3H] Idazoxan); assay type: cell membranes, Rattus norvegicus, Wistar, Cerebral cortex, Membrane; conditions: Not Active = under 50% inhibition at 10 µM
Endothelin-1 receptor = molecular target: T1, Endothelin-1 receptor (Homo sapiens, UniProt P25101); assay type: cell membranes, Membrane; conditions: cho-k1; note: in other assays of this panel Not Active means under 50% inhibition at 10 µM
T1 sequence (P25101 whole entry): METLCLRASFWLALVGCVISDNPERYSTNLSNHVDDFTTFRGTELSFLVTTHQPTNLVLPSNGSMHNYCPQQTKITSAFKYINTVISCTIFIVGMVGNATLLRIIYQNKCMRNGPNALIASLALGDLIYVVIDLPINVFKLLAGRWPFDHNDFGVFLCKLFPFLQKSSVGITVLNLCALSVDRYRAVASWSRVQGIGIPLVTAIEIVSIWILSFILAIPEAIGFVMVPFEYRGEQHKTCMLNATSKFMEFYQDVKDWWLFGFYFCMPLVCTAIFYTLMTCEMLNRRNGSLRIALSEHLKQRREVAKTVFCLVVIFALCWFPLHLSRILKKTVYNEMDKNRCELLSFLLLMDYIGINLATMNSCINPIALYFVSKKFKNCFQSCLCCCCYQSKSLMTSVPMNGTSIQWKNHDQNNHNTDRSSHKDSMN

Adenosine receptor A1 = molecular target: T2, Adenosine receptor A1 (Homo sapiens, UniProt P30542); assay type: cell membranes, CHO, Membrane; conditions: cho;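 note: radioligand binding assay at the adenosine A1 receptor, with DPCPX serving as the labelled ligand; in other assays of this panel Not Active means under 50% inhibition at 10 µM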
T2 sequence (P30542 whole entry): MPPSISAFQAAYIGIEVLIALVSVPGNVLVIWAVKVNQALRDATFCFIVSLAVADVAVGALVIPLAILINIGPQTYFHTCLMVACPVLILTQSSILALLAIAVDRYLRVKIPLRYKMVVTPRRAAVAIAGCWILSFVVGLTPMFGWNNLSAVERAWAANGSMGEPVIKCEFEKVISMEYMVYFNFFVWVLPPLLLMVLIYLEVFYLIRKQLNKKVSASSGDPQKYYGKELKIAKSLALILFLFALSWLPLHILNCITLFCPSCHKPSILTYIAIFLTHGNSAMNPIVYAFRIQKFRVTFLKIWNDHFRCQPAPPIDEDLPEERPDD

[2] = molecular target: T3, C-X-C chemokine receptor type 1 (Homo sapiens, UniProt P25024); note: in other assays of this panel Not Active means under 50% inhibition at 10 µM
T3 sequence (P25024 whole entry): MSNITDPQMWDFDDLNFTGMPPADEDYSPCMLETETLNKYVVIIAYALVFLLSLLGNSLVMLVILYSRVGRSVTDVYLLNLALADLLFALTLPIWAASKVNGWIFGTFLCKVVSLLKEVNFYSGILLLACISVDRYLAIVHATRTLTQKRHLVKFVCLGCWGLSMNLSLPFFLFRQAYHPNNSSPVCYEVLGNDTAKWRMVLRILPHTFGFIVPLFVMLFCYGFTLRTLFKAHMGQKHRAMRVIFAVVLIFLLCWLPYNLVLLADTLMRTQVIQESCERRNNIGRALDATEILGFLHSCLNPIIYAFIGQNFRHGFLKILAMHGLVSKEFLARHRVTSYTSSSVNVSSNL

[3] = molecular target: Beta-3 adrenergic receptor (Homo sapiens, UniProt P13945); test: DRUGMATRIX: Adrenergic beta3 radioligand binding (ligand: [125I] Cyanopindolol); assay type: cell membranes, HEK293, Membrane; conditions: hek293; Not Active = under 50% inhibition at 10 µM
[4] = molecular target: T4, Angiotensin-converting enzyme (Oryctolagus cuniculus, UniProt P12822); assay type: tissue-based, Lung;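 note: enzymatic inhibition of angiotensin-converting enzyme measured with FAPGG as the substrate; in other assays of this panel Not Active means under 50% inhibition at 10 µM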
T4 sequence (P12822 whole entry): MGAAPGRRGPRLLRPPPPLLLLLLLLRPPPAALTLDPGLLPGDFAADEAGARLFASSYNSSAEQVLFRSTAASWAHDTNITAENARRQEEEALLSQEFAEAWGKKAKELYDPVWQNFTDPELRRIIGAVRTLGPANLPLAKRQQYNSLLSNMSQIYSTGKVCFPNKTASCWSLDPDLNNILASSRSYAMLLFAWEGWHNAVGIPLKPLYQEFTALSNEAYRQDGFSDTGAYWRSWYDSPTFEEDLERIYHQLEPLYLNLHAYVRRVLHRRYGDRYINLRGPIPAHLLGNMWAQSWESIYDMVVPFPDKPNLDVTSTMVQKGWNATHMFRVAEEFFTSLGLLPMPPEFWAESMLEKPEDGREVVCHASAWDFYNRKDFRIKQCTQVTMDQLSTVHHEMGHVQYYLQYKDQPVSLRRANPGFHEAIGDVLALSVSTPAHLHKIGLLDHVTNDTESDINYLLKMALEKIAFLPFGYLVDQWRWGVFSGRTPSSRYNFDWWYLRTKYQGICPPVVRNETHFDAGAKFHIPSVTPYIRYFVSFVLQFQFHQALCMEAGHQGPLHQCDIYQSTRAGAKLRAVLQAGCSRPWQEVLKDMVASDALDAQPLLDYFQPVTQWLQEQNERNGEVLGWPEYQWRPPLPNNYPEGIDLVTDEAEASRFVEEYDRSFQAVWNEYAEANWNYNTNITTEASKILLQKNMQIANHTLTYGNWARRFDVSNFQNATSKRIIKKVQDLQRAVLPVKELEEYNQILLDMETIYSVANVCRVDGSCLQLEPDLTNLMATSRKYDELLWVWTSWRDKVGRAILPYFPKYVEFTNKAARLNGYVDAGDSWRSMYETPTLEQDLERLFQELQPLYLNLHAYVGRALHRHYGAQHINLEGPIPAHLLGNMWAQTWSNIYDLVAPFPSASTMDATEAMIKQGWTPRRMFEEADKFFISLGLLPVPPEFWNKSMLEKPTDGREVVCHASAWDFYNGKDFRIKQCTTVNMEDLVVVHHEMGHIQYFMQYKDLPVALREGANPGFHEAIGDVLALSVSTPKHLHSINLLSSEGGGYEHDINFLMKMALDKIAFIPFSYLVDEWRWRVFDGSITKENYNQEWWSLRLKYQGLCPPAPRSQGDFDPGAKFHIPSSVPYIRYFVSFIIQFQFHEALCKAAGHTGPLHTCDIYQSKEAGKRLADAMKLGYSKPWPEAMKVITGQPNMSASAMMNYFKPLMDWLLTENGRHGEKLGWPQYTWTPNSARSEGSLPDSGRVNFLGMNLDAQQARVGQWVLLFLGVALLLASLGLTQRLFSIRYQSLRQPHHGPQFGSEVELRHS

Adenosine receptor A3 = molecular target: T5, Adenosine receptor A3 (Homo sapiens, UniProt P0DMS8); assay type: cell membranes, CHO-K1, Membrane
T5 sequence (P0DMS8 whole entry): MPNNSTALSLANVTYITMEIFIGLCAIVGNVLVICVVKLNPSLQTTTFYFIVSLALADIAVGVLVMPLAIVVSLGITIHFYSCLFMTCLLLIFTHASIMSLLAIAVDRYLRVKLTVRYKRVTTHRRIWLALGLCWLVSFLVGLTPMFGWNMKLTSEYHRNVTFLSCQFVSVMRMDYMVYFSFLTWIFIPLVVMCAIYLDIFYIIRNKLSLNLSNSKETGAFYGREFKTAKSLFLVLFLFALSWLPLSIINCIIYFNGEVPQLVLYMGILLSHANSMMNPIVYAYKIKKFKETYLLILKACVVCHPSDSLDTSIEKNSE

Chain of Beta-3 adrenergic receptor (P13945 whole entry): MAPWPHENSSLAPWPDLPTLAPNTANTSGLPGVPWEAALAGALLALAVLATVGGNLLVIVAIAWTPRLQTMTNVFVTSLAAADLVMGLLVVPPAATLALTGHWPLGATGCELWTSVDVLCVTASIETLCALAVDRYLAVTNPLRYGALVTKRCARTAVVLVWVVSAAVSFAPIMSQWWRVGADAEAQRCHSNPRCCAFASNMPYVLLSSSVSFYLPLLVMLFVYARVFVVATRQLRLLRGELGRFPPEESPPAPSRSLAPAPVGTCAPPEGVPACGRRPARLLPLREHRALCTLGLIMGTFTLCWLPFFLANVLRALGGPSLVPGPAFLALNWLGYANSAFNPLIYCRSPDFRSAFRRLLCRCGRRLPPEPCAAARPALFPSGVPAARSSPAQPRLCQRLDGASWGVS

Cc1c(C)c2c(c(C)c1O)CCC(C)(CN1CCN(c3cc(N4CCCC4)nc(N4CCCC4)n3)CC1)O2 (stereo unspecified)
IC50 [1]: Not Active
Ki [1]: Not Active
IC50 (Endothelin-1 receptor): Not Active
IC50 (Adenosine receptor A1): Not Active
IC50 [2]: Not Active
IC50 [3]: Not Active
IC50 [4]: Not Active
IC50 (Adenosine receptor A3; read-out: IC50): 10.8 µM
Ki (Adenosine receptor A3; read-out: Ki): 6.08 µM

CS(=O)(=O)c1ccc([C@@H](O)[C@@H](CO)NC(=O)C(Cl)Cl)cc1 [THIAMPHENICOL]
IC50 [1]: Not Active
Ki [1]: Not Active
IC50 (Endothelin-1 receptor): Not Active
IC50 (Adenosine receptor A1): Not Active
IC50 [2]: Not Active
IC50 [3]: Not Active
IC50 [4]: Not Active
IC50 (Adenosine receptor A3; cho-k1): Not Active

Clc1ccccc1CN1CCc2sccc2C1 [TICLOPIDINE]
IC50 ([1]; read-out: IC50): 2.24 µM
Ki ([1]; read-out: Ki): 1.49 µM
IC50 (Endothelin-1 receptor): Not Active
IC50 (Adenosine receptor A1): Not Active
IC50 [2]: Not Active
IC50 [3]: Not Active
IC50 [4]: Not Active
IC50 (Adenosine receptor A3; cho-k1): Not Active

CC(C)Oc1ccc2c(=O)c(-c3ccccc3)coc2c1 [IPRIFLAVONE]
IC50 [1]: Not Active
Ki [1]: Not Active
IC50 (Endothelin-1 receptor): Not Active
IC50 (Adenosine receptor A1): Not Active
IC50 [2]: Not Active
IC50 [3]: Not Active
IC50 [4]: Not Active
IC50 (Adenosine receptor A3; cho-k1): Not Active

CCN1CCC[C@H]1CNC(=O)c1cc(S(N)(=O)=O)ccc1OC [LEVOSULPIRIDE]
IC50 [1]: Not Active
Ki [1]: Not Active
IC50 (Endothelin-1 receptor): Not Active
IC50 (Adenosine receptor A1): Not Active
IC50 [2]: Not Active
IC50 [3]: Not Active
IC50 [4]: Not Active
IC50 (Adenosine receptor A3; cho-k1): Not Active
